Assays:
[1] = molecular target: Serine/threonine-protein kinase PAK 4 (Homo sapiens) (UniProt O96013); test: Inhibition of human PAK4 assessed as residual activity at 1 uM relative to control
[2] = molecular target: CDK7/Cyclin H/MNAT1 (Homo sapiens) (UniProt P51946+P50613+P51948); test: Inhibition of human CDK7/cyclin H/MAT1 assessed as residual activity at 1 uM relative to control; type: protein-complex assay
[3] = molecular target: T1, TGF-beta receptor type-1 (Homo sapiens) (UniProt P36897); test: Inhibition of human TGFBR1 assessed as residual activity at 1 uM relative to control
T1 sequence (whole entry): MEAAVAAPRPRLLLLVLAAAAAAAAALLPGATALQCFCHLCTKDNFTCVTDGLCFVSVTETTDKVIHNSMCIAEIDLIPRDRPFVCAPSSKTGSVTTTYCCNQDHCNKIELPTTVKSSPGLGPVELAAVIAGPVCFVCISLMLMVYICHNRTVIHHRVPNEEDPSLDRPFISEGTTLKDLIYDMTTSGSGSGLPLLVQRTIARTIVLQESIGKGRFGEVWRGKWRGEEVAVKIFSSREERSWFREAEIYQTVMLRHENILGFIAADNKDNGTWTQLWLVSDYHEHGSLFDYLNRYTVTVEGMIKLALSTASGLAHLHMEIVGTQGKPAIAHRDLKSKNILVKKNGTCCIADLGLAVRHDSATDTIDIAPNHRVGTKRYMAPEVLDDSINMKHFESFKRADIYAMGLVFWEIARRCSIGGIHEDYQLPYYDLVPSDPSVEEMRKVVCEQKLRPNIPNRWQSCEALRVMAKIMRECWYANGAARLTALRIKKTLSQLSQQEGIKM

Sequence of Serine/threonine-protein kinase PAK 4 (Homo sapiens) (O96013 whole entry, looked up): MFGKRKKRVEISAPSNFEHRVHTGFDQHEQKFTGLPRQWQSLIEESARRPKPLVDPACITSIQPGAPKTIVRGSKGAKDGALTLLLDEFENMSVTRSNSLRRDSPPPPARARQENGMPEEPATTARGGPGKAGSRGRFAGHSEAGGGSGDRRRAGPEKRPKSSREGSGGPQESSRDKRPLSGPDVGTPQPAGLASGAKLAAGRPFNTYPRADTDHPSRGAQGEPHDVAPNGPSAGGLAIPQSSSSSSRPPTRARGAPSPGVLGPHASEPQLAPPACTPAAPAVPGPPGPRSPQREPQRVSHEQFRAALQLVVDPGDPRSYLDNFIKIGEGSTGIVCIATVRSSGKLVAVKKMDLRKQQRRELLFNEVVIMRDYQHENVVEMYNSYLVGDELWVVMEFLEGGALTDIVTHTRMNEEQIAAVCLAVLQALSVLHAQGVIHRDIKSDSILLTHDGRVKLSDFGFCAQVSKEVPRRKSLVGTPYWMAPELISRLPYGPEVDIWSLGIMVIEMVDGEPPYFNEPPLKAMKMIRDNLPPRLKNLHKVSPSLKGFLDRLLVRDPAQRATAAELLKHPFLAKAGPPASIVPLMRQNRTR

Row | Activity [1] | Activity [2] | Activity [3] | Compound
1 | 83% | 95% | 85% | COc1ccc(-c2nc3cc(-c4csc(C(=O)NCCC(C)C)c4)cnc3[nH]2)cc1
2 | 87% | 100% | 111% | COc1ccc(-c2nc3cc(-c4csc(C(=O)NCC(C)(C)C)c4)cnc3[nH]2)cc1
3 | 89% | 91% | 104% | COc1ccc(-c2nc3cc(-c4csc(C(=O)NCC(C)C)c4)cnc3[nH]2)cc1
